Results on four compounds are retold here after patent publication US20050119301A1, “Treatment of restenosis” (priority 2001, published 2005).

Where “and” joins values, the source holds several entries; their conditions need not be identical. Identical values can stand only once.

The subject of assay [1] is rat isolated aortic rings. Put plainly: Vasodilatory capacity in noradrenaline pre-constricted aortic rings and mechanism of action (Protocol 2a/2b). To be noted: for vasodilatory response: effect of high KCl levels: KCl 40 mM; for vasodilatory response: effect of nitro-L-arginine (NOLA): NOLA 10 μM; for vasodilatory response: effect of ODQ: ODQ 10 μM; for vasodilatory response: effect of removal of the endothelium: denuded vs intact endothelium; for vasodilatory response: effect of indomethacin: indomethacin 10 μM. Here is the method: Male Sprague-Dawley rats (250±50 g) were gassed with 80% CO2 and 20% O2 until killed. The thoracic aorta was excised and quickly placed in ice-cold Krebs modified solution composed of NaCl […], […] 4.7 mM, MgSO4 7H2O 1.17 mM, NaHCO3 25 mM, KH2PO4 1.18 mM, CaCl2 2.5 mM, glucose 11 mM and EDTA 0.03 mM. It was then trimmed of fat and connective tissue and cut into 2-3 mm wide rings. Each ring was mounted on two parallel stainless steel hooks in a single water-jacketed 3 ml organ bath containing modified Krebs solution maintained at 37° C. and bubbled with 95% O2 plus 5% CO2. The lower hook was attached to a movable support leg and the upper hook to an FTO3 force transducer (Grass Scientific Instruments, Mitutoyo, Japan) for isometric recordings. Changes in force were amplified (Quadbridge amplifier, Scientific Concepts Inc., Victoria, Australia) and recorded on a MacLab 8E data acquisition system (Adinstruments Pty Ltd., NSW, Australia) linked to an Apple computer (Apple Computer Inc, Cupertina, Calif.). Rings were set at an initial tension of 2 g and allowed to equilibrate for 30 minutes after which time they were re-set to 2 g tension before the commencement of each experimental protocol.
A full concentration response to noradrenaline was obtained. From this the concentration producing a submaximal contraction of approximately 80% was selected (0.03-0.3 μM). The ring was then constricted with this submaximal concentration and allowed to plateau before full concentration-relaxation curves were obtained to β-estradiol and Cpds. 5, 7, 8 and 12 and the vehicle DMSO (at equi-volume). Only one compound was studied with any one ring from any one animal.
Full relaxation curves were obtained to Cpds. 5, 7, 8 and 12 and β-estradiol in the absence and presence of the endothelium (rings were denuded of endothelium by gentle rotation of the lumen against a rough surface), the nitric oxide synthase inhibitor nitro-L-arginine (NOLA 10 μM; with the exception of Cpd. 8, due to limited supply of the compound), KCl 40 mM (to inhibit endothelium derived hyperpolarising factor), the cyclo-oxygenase inhibitor indomethacin (10 μM) and the soluble guanylate cyclase inhibitor 1H-[1,2,4]oxadiazolo[4,3-a]quinoxalin-1-one (ODQ; 10 μM). Only one compound with only one intervention was tested on any one ring from any one animal.
Contractile responses are expressed in g tension (mean+standard error of the mean). Dilatory responses are expressed as a percentage of the contractile force generated by the pre-constricting agent used. Individual concentration-response curves for noradrenaline and acetylcholine±the interventions used were fitted to a logistic equation of the form […] where E is the response, M is the maximum response and K is the concentration eliciting 50% of the maximum response (ie neg log EC50).

Assay [2] can be described thus: a-tocopheroxyl radical attenuating ability (TRAA) assay in micelles. The conditions noted are these: for TRAA, HTAC Micelle (positive) / TRAA, SDS Micelle (negative): 10 μM, relative rate constant of a-tocopheroxyl radical decay with/without sample, large = active. Type of assay: biochemical. As for the experimental part:
The a-tocopheroxyl radical attenuating ability (TRAA) assay has been described in detail by Witting et al. (1997). Briefly, one hundred mM stock solutions of cetyltrimethyl ammonium chloride (HTAC) and sodium dodecyl sulphate (SDS) were prepared in phosphate buffer. Micellular dispersions of a-tocopherol were prepared by diluting an ethanolic solution of a-tocopherol (0.2 M) into micelles at a final vitamin concentration of […]. This resulting solution was sonicated for 15 sec at which time it was completely homogenous.
Aliquots of the a-tocopherol-containing micells were placed into the neck of an ESR flat cell […] and placed 0.5 m from a 125 W Osram HQL-Mercury fluorescent bulb used as a UV light source. To increase the light intensity, the frosted casing of the bulb was removed. Samples were irradiated for 3 min, followed by thorough mixing and subsequent transfer of the flat cell to the corresponding temperature-controlled Dewar insert in the ESR cavity, where the sample was allowed to equilibrate to 37° C. This procedure afforded a-tocopheroxyl radical (a-TO) between […] as estimated against a 10 mM TPDI nitroxide standard. ESR spectra were obtained at 9.41 GHz with modulation amplitude 1.0 G, microwave power […], and modulation frequency 12.5 kHz using a Bruker ESP 300 ESR spectrometer fitted with an X-band cavity.
After accumulation of the T=0 min spectrum, the flat cell arrangement containing a-TO was removed from the ESR cavity and the solution was gently coaxed into the neck of the flat cell under positive pressure. The compound of choice was then added to give a final concentration of 10 mM and the treated sample was replaced in the cavity and allowed to equilibrate to standard conditions, and sampling was resumed. The time-dependent decay of ESR signal intensity for a-TO was measured both in the presence and absence of the added co-antioxidant (10 mM) using a sweep time of 20.5 sec, averaging the output from three successive sweeps at each time point, and averaging the results of three separate experiments.
Results are expressed as the relative rate constant of decay of a-tocopheroxyl radicals in the presence of the test sample divided by the relative rate constant of decay of a-tocopheroxyl radicals in the absence of the test sample. TRAA approaching unity is considered to have poor synergistic activity, whereas active compounds show large values because they eliminate the a-tocopheroxyl radicals immediately upon mixing. Ascorbate was used as a positive control.

The test system of a further assay is LDL receptor. Put plainly: LDL receptor expression on HepG2 cells, [125I]-LDL specific binding. Type of assay: cell-based, human. The conditions noted are these: for LDL receptor expression, Experiment 3 / LDL receptor expression, Experiment 2 / LDL receptor expression, Experiment 1: 48 hours; for LDL receptor expression, Experiment 3: control 130 ± 18; for LDL receptor expression, Experiment 2: control 261 ± 57; for LDL receptor expression, Experiment 1: control 283 ± 32; for effect on LDL binding / LDL receptor expression over control (in words): HepG2. As for the experimental part:
Confluent human hepatoma (HepG2) cells were preincubated in the absence or presence of the test compound (Cpd. 7, Cpd. 8 and Cpd. 12 at final concentration of 50 nM, 500 nM and […]) for 48 hours, in complete DMEM medium containing 10% fetal bovine serum (FBS). Serum deprivation (i.e. 0.5% FBS) was used as a positive control to induce LDL receptor expression. Following preincubation, cells were washed before […] of [^125I]-LDL (specific activity 6.5-29.5 cpm/fmol) was added and the cells incubated at 4° C. for another 4 hours in the absence (for total binding) and presence of […] unlabelled LDL (to assess non-specific binding). Cells were then washed, lysed (0.1 M NaOH), and the radioactivity and protein content (BCA assay) of the lysate determined. The number of LDL receptors was determined from the specific binding (total binding minus non-specific binding), assuming one molecule of LDL binds per LDL receptor. Three independent experiments (each in triplicate) were performed with different batches of cells and [^125I]-LDL.
To determine the concentration of LDL needed to reach binding saturation, confluent HepG2 cells were incubated in 12-well plates with increasing concentrations of [^125I]-LDL in the presence of excess (i.e., […]) unlabelled LDL. […] Using this concentration, the time required to reach saturation binding at 4° C. was determined to be approximately 4 hours. These established optimal conditions were used for all subsequent binding assays.

As for `Oc1ccc(C2COc3cc(O)ccc3C2O)cc1` (stereo not drawn) [Cpd. 7], in assay [1], the “vasodilatory response: effect of high KCl levels” value was “inhibited”, the “vasodilatory response: effect of nitro-L-arginine (NOLA)” value is listed as “trend towards inhibition of these responses by NOLA but this was not statistically significant”, the “vasodilatory response: effect of ODQ” value is on record as “inhibited” and the “vasodilatory response: effect of removal of the endothelium” value was “inhibited”. The “vasodilatory response: effect of indomethacin” value in assay [1] is given as “did not influence”. In assay [2], the “TRAA, HTAC Micelle (positive)” value is on record as 1.4 ± 0.5 and the “TRAA, SDS Micelle (negative)” value is on record as 1.9 ± 0.2. Besides, in the assay with LDL receptor (50 nM), the “LDL receptor expression, Experiment 3” value is given as 159 ± 30 fmol LDL receptors per mg cell protein and the “LDL receptor expression, Experiment 2” value is 239 ± 49 fmol LDL receptors per mg cell protein. Besides, in the assay with LDL receptor (50 nM, mean ± SD, n = 3), the “LDL receptor expression, Experiment 1” value was 299 ± 45 fmol LDL receptors per mg cell protein. For the same compound, in the assay on LDL receptor (500 nM), the “LDL receptor expression, Experiment 3” value is recorded as 171 ± 14 fmol LDL receptors per mg cell protein; the “LDL receptor expression, Experiment 2” value is reported as 199 ± 58 fmol LDL receptors per mg cell protein; the “LDL receptor expression, Experiment 1” value was 281 ± 22 fmol LDL receptors per mg cell protein. In the assay with LDL receptor, the “effect on LDL binding / LDL receptor expression over control (in words)” value is “increased LDL binding”.
Regarding `O=C1c2ccc(O)cc2OCC1c1ccc(O)cc1` (stereo not drawn) [Cpd. 5], in assay [1], the “vasodilatory response: effect of high KCl levels” value is given as “inhibited”, the “vasodilatory response: effect of nitro-L-arginine (NOLA)” value is listed as “inhibited”, the “vasodilatory response: effect of ODQ” value is given as “inhibited” and the “vasodilatory response: effect of removal of the endothelium” value is on record as “inhibited”. Also, the “vasodilatory response: effect of indomethacin” value in assay [1] was “did not influence”. Moreover, the “TRAA, HTAC Micelle (positive)” value in assay [2] was 5.3 and 5.4.
As for `Oc1ccc(C2COc3cc(O)ccc3C2O)cc1` (stereo not drawn) [Cpd. 8], in assay [1], the “vasodilatory response: effect of high KCl levels” value is reported as “inhibited”, the “vasodilatory response: effect of ODQ” value was “but not by ODQ”, the “vasodilatory response: effect of removal of the endothelium” value was “inhibited” and the “vasodilatory response: effect of indomethacin” value is “potentiated”. Also, in assay [2], the “TRAA, HTAC Micelle (positive)” value was 2.37; the “TRAA, SDS Micelle (negative)” value was 1.26 and 1.58. In the assay with LDL receptor (50 nM), the “LDL receptor expression, Experiment 3” value is recorded as 152 ± 24 fmol LDL receptors per mg cell protein and the “LDL receptor expression, Experiment 2” value is 291 ± 66 fmol LDL receptors per mg cell protein. Further, the “LDL receptor expression, Experiment 1” value in the assay on LDL receptor (50 nM, mean ± SD, n = 3) was 273 ± 22 fmol LDL receptors per mg cell protein. Further, in the assay with LDL receptor (500 nM), the “LDL receptor expression, Experiment 3” value is given as 193 ± 18 fmol LDL receptors per mg cell protein; the “LDL receptor expression, Experiment 2” value is on record as 291 ± 52 fmol LDL receptors per mg cell protein; the “LDL receptor expression, Experiment 1” value is listed as 312 ± 42 fmol LDL receptors per mg cell protein. The “effect on LDL binding / LDL receptor expression over control (in words)” value with LDL receptor is recorded as “increased LDL binding”.
Consider `Oc1ccc(C2=Cc3ccc(O)cc3OC2)cc1` [Cpd. 12], for which, in assay [1], the “vasodilatory response: effect of high KCl levels” value is listed as “inhibited” and the “vasodilatory response: effect of removal of the endothelium” value is recorded as “inhibited”. Besides, in assay [2], the “elimination of a-tocopheroxyl radicals (in words)” value is “induced high rate of decay and was active at eliminating a-tocopheroxyl radicals”; the “TRAA, HTAC Micelle (positive)” value is 26.77 and 25.70; the “TRAA, SDS Micelle (negative)” value is listed as “Almost immediate”. In the assay on LDL receptor (50 nM), the “LDL receptor expression, Experiment 3” value is given as 156 ± 24 fmol LDL receptors per mg cell protein and the “LDL receptor expression, Experiment 2” value was 134 ± 52 fmol LDL receptors per mg cell protein. Also, the “LDL receptor expression, Experiment 1” value with LDL receptor (50 nM, mean ± SD, n = 3) is reported as 319 ± 43 fmol LDL receptors per mg cell protein. In addition, in the assay on LDL receptor (500 nM), the “LDL receptor expression, Experiment 3” value is recorded as 136 ± 23 fmol LDL receptors per mg cell protein; the “LDL receptor expression, Experiment 2” value was 233 ± 40 fmol LDL receptors per mg cell protein; the “LDL receptor expression, Experiment 1” value is 311 ± 35 fmol LDL receptors per mg cell protein. Besides, the “effect on LDL binding / LDL receptor expression over control (in words)” value with LDL receptor is listed as “without consistent effect”.
